Test results from BindingDB's records for doi:10.1021/jm00064a006 (Eli Lilly, 1993).

Assay: The antagonist activity measured as inhibition of LTB4 response in aggregation of neutrophils

Row | IC50 [µM] | Compound
1 | 0.133 | COc1ccc(/C=C/CCCCOc2ccc3c(=O)c4cc(C(=O)O)ccc4oc3c2CCC(=O)O)cc1 [LY-210073]
2 | 0.513 | CCCCCCCCCCOc1ccc2c(=O)c3cc(C(=O)O)ccc3oc2c1CCC(=O)O [5-(2-Carboxy-ethyl)-6-decyloxy-9-oxo-9H-xanthene-2-carboxylic acid]
